We go through two compounds from patent publication US10035796B2, “Crystalline forms of a BACE inhibitor, compositions, and their use” (Merck Sharp & Dohme Corp., priority 2014, dated 2018).

Data set [1] is described as follows: Hygroscopicity by dynamic vapor sorption (DVS). Format: physicochemical. Here is the method:
Hygroscopicity was evaluated by using a dynamic vapor sorption instrument (DVI). The experiment was performed under controlled temperature conditions with temperature set at 25° C. Following a drying step at 40° C. for 60 minutes, samples were subjected to water vapor starting from 5% relative humidity with stepwise increase up to 95% relative humidity in 5% increments. The desorption experiment was performed under the same conditions with a stepwise decrease in relative humidity. Maximum equilibrium time was held as 180 minutes with equilibrium criteria as 0.005 weight % in 5 min.

The nature of data set [2]: Single oral dose pharmacokinetic study in male rats. Format: in vivo. The settings on record: male rats (n=4 per group), suspension in 4% hydroxypropyl methylcellulose, nominal dose 100 mg/kg, FIG. 5. The method, then:
(FIG. 5). […] To generate the data shown in FIG. 5, a single oral dose pharmacokinetic study was conducted as a two-way parallel design in male rats (n=4 per group). For each form a suspension was prepared in 4% hydroxypropyl methylcellulose with nominal dose as 100 mg/kg.

Take `CN1C(=N)N[C@](C)(c2cc(NC(=O)c3ccc(F)cn3)ccc2F)CS1(=O)=O` [Crystalline Anhydrous Form 1]: the “crystalline form by PXRD after the vapor sorption analysis” value in data set [1] (after sorption/desorption between 5% and 95% relative humidity) is listed as “retain the identical Crystalline Anhydrous Form 1”. Further, in data set [1] (ambient temperature, 95% relative humidity, DVS measurement), the moisture uptake is recorded as 0.04 weight %. For the same compound, in data set [1] (dynamic vapor sorption, 25° C.), the “hygroscopicity according to the European Pharmacopeia classification” value is “non-hygroscopic”. Besides, the “mean plasma concentration-time profile” value in data set [2] is recorded as “essentially identical to that of the corresponding amorphous HCl salt form”.

As for `CN1C(N)=NC(C)(c2cc(NC(=O)c3ccc(F)cn3)ccc2F)CS1(=O)=O.Cl` (centres unmarked) [amorphous HCl salt form], in data set [2], the “mean plasma concentration-time profile” value is recorded as “excellent”.
